In article PMC9046208, “Foldamers reveal and validate therapeutic targets associated with toxic α-synuclein self-assembly” (Nature Communications, 2022):

Columns and labels:
αS aggregation = biological target: T1, αS aggregation (Homo sapiens, UniProt P37840); assay: SDS-PAGE analysis of soluble and insoluble αS fractions; format: biochemical; conditions: 100 µM αS, equimolar SK-129, four days
T1 construct: made in house; host or cells: Escherichia coli BL21(DE3), periplasm
Description: The solution of αS (100 µM) in the absence and presence of SK-129 were prepared in the aggregation buffer (20 mM NaCl, 20 mM NaPi, pH 6.5) and kept at 37 °C and constant shaking at 1200 rpm until the aggregation of αS plateaued (four days). The solutions were separated into soluble and insoluble fractions of αS by centrifugation at 22,000 × g for 20 min. Afterwards, 2 x Laemmli protein sample loading buffer (Biorad, Hercules, CA) was added to the fractions and boiled at 95 °C for 5 min and ran on a 12% Mini-PROTEAN precast protein gel (Biorad, Hercules, CA). In addition, we also quantified SDS-PAGE gel band intensities using ImageJ software. The gel-based experiments were repeated three times (n = 3) independently to ensure the reproducibility of the data. All the uncropped gels (from Main manuscript and Supplementary Figures) have been included in the Supplementary Data File as Supplementary Fig. 29.

[1] = biological target: T2, αS1 seed-catalyzed aggregation (Homo sapiens, UniProt P37840, DEL6-12); assay: Seed-catalyzed ThT aggregation assay (10% WT αS seeds), αS1; format: biochemical; conditions: αS1, equimolar ratio
T2 construct: made in house; host or cells: Escherichia coli BL21(DE3)
Description: Seed-catalyzed αS aggregation assay was performed similarly to a previously described protocol. Briefly, 100 μM monomeric WT αS solution (200 μL, in 1x PBS buffer) was placed into a ThermoMixer (Eppendorf, Hamberg, Germany) and shook for five days at a rate of […] and 37 °C. The solution was sonicated for 10 min and used as αS seeds. The seed-catalyzed aggregation of WT αS/ αS variants was performed by adding αS seeds (10% seeds, αS in monomeric concentration, v/v) into 140 μL of fresh 100 μM WT αS/ αS variants solution and aggregation was started with constant shaking at a rate of […] and 37 °C. The aggregation of proteins was monitored at the indicated times (See the main manuscript) using the above-mentioned method.
The ThT aggregation assay for each protein (WT αS and αS variants) in the presence of SK-129 was carried out the above-mentioned method. SK-129 (from 10 mM stock solution in DMSO) was added at an equimolar ratio (1% DMSO, v/v) to the proteins at the start of the aggregation experiment. The concentration of DMSO was kept constant (1%, v/v) in protein (WT αS and αS variants), control, and protein+molecule solutions. The kinetic profiles of protein aggregation were processed using OriginPro software (Version 9.1). Kinetic curves were fit using a built-in sigmoidal fit in the OriginLab.

[2] = test system: HEK293 cells expressing αS-A53T-YFP; assay: MTT assay, HEK293 cells αS-A53T-YFP, recombinant αS fibers; format: cell-based; set-up: key to MTT read-out (viability of HEK cells): absorbance at 570 nm (dissolved formazan); conditions: for MTT read-out (viability of HEK cells): 7 μM αS + SK-129 equimolar
Description: The HEK293 cells that stably express αS-A53T-YFP and αS-YFP were grown in DMEM with 10% FBS and 1% pen/strep and cultured in an incubator at 37 °C and 5% CO2(g). A total of 60,000 cells per well in 300 µL media were plated in a µ-slide eight-well plate (Ibidi, Munich, Germany) and incubated for 24 h to adhere to the plate. […] Next, the plate was incubated for 24 h, followed by the addition of 30 µL of 1x PBS buffer containing MTT dye (in 1x PBS buffer, 5 mg/mL) to each well. The plates were wrapped in aluminum foil and incubated for 3 h. After 3 h, all liquid was aspirated carefully without disturbing the formazan crystals. To each well, 300 µL of DMSO was added to dissolve the crystals. Once dissolved, the DMSO solution was transferred to a clear 96-well plate (100 µL/well). The absorbance was read on a 96-well plate reader at 570 nm. The cytotoxicity of the HEK cells was monitored for up to 4 days.
The seeds were generated by aggregating recombinant αS (100 µM) in the absence and presence of SK-129 at an equimolar ratio under the ThT aggregation kinetic conditions for seven days. In the case of seeds from the brain, we used a PMCA sample (5th cycle) generated from the brain seeds in the absence and presence of SK-129 at an equimolar ratio.

[3] = test system: HEK cells expressing αS-A53T-YFP; assay: Intracellular seed catalyzed aggregation in HEK cells, MTT viability; format: cell-based; conditions: 10 µM SK-129 added 8 h after PD seeds, up to four days
Description: The HEK cells (200,000 cells/mL) were plated in an µ-slide eight-well plate (300 µL/well) and incubated at 37 °C and 5% CO2 (g), and allowed to adhere to the plate for 24 h in media (DMEM, 10% FBS, 1% pen/strep). […] The HEK cells were incubated with αS fibrils for 8 h followed by the addition of 10 µM SK-129 for 300 µL media in each well (0.3 µL of 10 mM stock solution in DMSO, total DMSO = 0.1% v,v). The eight-well plate was incubated for a total of 24 h. The eight-well plate after 24 h was used for both confocal imaging and for the cytotoxicity measurements using MTT assay (2 wells/condition, 300 µL/well). In each experiment, 2 wells were used for each condition, including control (only media and DMSO), fibrils, and fibrils+SK-129.
The HEK cells in the eight-well plate were treated with 30 µL of 1x PBS buffer containing MTT dye (5 mg/mL in 1x PBS buffer) to each well. The plates were wrapped in aluminum foil and incubated for 3 h. After 3 h, all liquid was aspirated carefully without disturbing the formazan crystals. To each well, 300 µL of DMSO was added to dissolve the crystals. Once dissolved, the DMSO solution was transferred to a clear 96-well plate (100 µL/well). The absorbance was read on a 96-well plate reader at 570 nm. The cytotoxicity assay was conducted up to four days from when the protein conditions were added to the cells. […]

- effect on seed-catalyzed aggregation [1]: wholly suppressed
SMILES: COC(=O)c1cc(OCC(=O)O)c2cccc(NC(=O)c3cc(OC(C)C)c4cccc(NC(=O)c5cc(OCC(=O)O)c6cccc(NC(=O)c7cc(OC(C)C)c8cccc([N+](=O)[O-])c8n7)c6n5)c4n3)c2n1 [SK-129]
- αS fraction detected by SDS-PAGE (αS aggregation): predominantly detected in the soluble fraction
- MTT read-out (viability of HEK cells) ([2]; trial 1): 0.806
- MTT read-out (viability of HEK cells) ([2]; trial 2): 0.8743
- MTT read-out (viability of HEK cells) ([2]; trial 3): 0.8833
- MTT read-out (viability of HEK cells) ([2]; trial 4): 0.8674
- MTT read-out (viability of HEK cells) ([2]; trial 5): 0.8626
- MTT read-out (viability of HEK cells) ([2]; trial 6): 0.8492
- MTT read-out (viability of HEK cells) ([2]; trial 7): 0.941
- MTT read-out (viability of HEK cells) ([2]; trial 8): 0.878
- MTT read-out (viability of HEK cells) ([2]; trial 9): 0.892
- MTT read-out (viability of HEK cells) ([2]; trial 10): 0.917
- MTT read-out (viability of HEK cells) ([2]; trial 11): 0.805
- MTT read-out (viability of HEK cells) ([2]; trial 12): 0.8882
- MTT read-out (viability of HEK cells) ([2]; trial 13): 0.8431
- MTT read-out (viability of HEK cells) ([2]; trial 14): 0.8823
- MTT read-out (viability of HEK cells) ([2]; trial 15): 0.919
- MTT read-out (viability of HEK cells) ([2]; trial 16): 0.8589
- viability of HEK cells ([2]; αS aggregated with SK-129 equimolar, 7 μM, 24 h, αS alone 68%): 94%
- cell viability of HEK cells [3]: significantly higher upto four days
